Key:
[1] = clinical carboplatin / 1,25D3 schedule: carboplatin AUC and myelosuppression; format: in vivo, human; conditions: for mean AUC of carboplatin: dose calculated to achieve AUC=5, ±1.3
Method: Patients with malignant tumors were subject to a treatment regimen involving carboplatin and 1,25D3, but 48 hours prior to treatment, each patient was placed on a low calcium diet (250-300 mg/48 hr) and maintained on that diet for at least 7 days.
According to this regimen, each cycle lasts four weeks. For successive cycles, the dosage of 1,25D3 is increased by 30%. For the first two cycles, the patients were divided into two groups as follows:
Group 1. On day 1, this group of patients was given carboplatin (intravenously as a 30-minute infusion in 100 ml of carrier) at a dose calculated to achieve AUC=5. 24 hours later, a plasma sample was taken to determine carboplatin AUC, and the patients were placed on a three-day regimen of subcutaneous 1,25D3 per the schedule indicated in Table 2.
Group 2. On day 1, this group of patients was placed on a three-day regimen of subcutaneous 1,25D3. On day 3, the patients were given carboplatin at a dose calculated to achieve AUC=5. 24 hours later, a plasma sample was taken to determine carboplatin AUC.
Following the first cycle, the groups switched between pretreatment and post treatment. For the third and subsequent cycles in this treatment, the patients were placed on a three-day regimen of subcutaneous 1,25D3. On day 3, the patients were given carboplatin. at a dose calculated to achieve AUC=5. 24 hours later, a plasma sample was taken to determine carboplatin AUC.
Following the first two cycles, patients were assessed to determine the effect on carboplatin AUC by pretreatment vs. post treatment with 1,25D3.

SCCVII/SF tumor [2] = test: in vivo excision clonogenic tumor cell survival assay; set-up: species or system C3H/HeJ mice; conditions: for enhancement of clonogenic cell kill: p<0.001 ANOVA
Method: The effect of 1,25D3 or Ro23-7553 alone and/or in combination with various cytotoxic agents on tumor cells in vivo was determined by a modification of the in vivo excision clonogenic tumor cell survival assay (Johnson et al., Cancer Chemother. Pharmacol., 32, 339-46 (1993)). Briefly, SCCVII/SF tumor bearing animals at 14 days post implantation were treated i.p. for 3 days with 1,25D3 or Ro23-7553 at either 0.5 mg/kg body weight/day or at varying doses of 0.03125-0.5 mg/kg body weight/day. […] After 24 hours, aliquots of minced tumor were enzymatically dissociated for 60 min at room temperature with a mixture of type I collagenase (37.5 mg/ml), DNAse (55 mg/ml) and EDTA (1%). Viable tumor cells (determined by trypan blue staining) were then plated at various dilutions. After 7 days incubation, colonies were counted, and numbers of clonogenic cells per gram of tumor were counted. The mean±standard deviation (SD) cell yield, cloning efficiency, and number of clonogenic cells for control (no treatment) tumors (n=40) averaged 139.4±38.2×10^6 viable tumor cells/g tumor, 27.0±0.56%, and 37.5±13.3×10^6 clonogenic tumor cells/g tumor, respectively. The surviving fraction per gram of tumor is defined as the number of clonogenic tumor cells per gram of treated tumor divided by the number of clonogenic tumor cells per gram of control (untreated) tumor. This assay is an accurate measure of in vivo anti-tumor activity; a surviving fraction less than 0.1 correlates with an actual decrease in tumor volume and an increase in tumor regrowth delay (Braunschweiger et al., Cancer Res., 48, 6011-16 (1988); Braunschweiger et al., Cancer Res., 51, 5454-60 (1991)).

SCCVII/SF tumor [3] = test: tumor regrowth assay (delay of tumor growth); format: in vivo, C3H/HeJ mice; conditions: for fractional tumor volume: vs either agent alone; for Tumor Regrowth Delay: mean±SD of the difference in time for treated and control tumors to reach 4× pretreatment size, Ro23-7553 continuous, cisplatin 6 mg/kg i.p.
Method: SCCVII/SF tumor cells (5×10^5) were inoculated s.c. into the flank of the leg of C3H/HeJ mice. On day 9 post implantation, as the tumors were palpable (approximately 5×5 mm), animals were randomized for treatment with low dose i.p. […] After 7 days, 6 mg/kg body weight cytotoxic agent was injected i.p. Control animals received either treatment alone or no treatment. Control (no treatment) animals were given injection of vehicle (PBS) alone or sham pumps were implanted. Tumor growth was assessed by measuring the tumor diameter with calipers three times weekly. […] Post-treatment volumes were expressed as a fraction of pretreatment volume at the time of initial treatment. Tumor regrowth delay was calculated as the mean±standard deviation of the difference in time for treated and control tumor volumes to reach 4 times the pretreatment volume.

SCCVII/SF cells [4] = conditions: 24 hr, 48 hr and 7 day incubation times; cited from earlier work
[5] = hypercalcemia in treated SCCVII/SF tumor-bearing animals; format: in vivo, C3H/HeJ mice
SCCVII/SF cells [6] = test: in vitro clonogenic assay; format: cell-based, murine; conditions: for enhancement of clonogenic cell kill: p<0.001 ANOVA
Method: The in vitro cytotoxicity of drug on tumor cells was determined via the in vitro clonogenic assay (McElwain et al., Mol. Cell. Diff., 3, 31-50 (1995)) with minor modifications as described herein. Briefly, murine SCCVII/SF cells were pre-treated with either 2 nM or 4 nM 1,25D3 or Ro23-7553. […] After 48 hours incubation with 1,25D3 or Ro23-7553, cells were treated for 2 hours with varying concentrations of cytotoxic agent, washed with RPMI 1640 plus FCS, and plated in various dilutions in 6-well tissue culture plates. Following a 7 day incubation at 37° C. in 5% CO2, monolayers were washed with saline, fixed with 100% methanol, and stained with 10% Giemsa; colonies were counted under light microscopy. The surviving fraction was calculated by dividing the cloning efficiency of treated cells by the cloning efficiency of untreated controls.

[7] = serum calcium levels in normal mice treated with 1,25D3 with or without zoledronate
Method: Normal C3H/HeJ mice were pretreated with 10 μg/kg body weight zoledronate and then treated with 0.25 μg 1,25D3 once a day for three days. Control animals received 1,25D3 alone, and one group of animals received only zoledronate. Following the last 1,25D3 treatment, blood was collected at 0, 24 and 48 hours from each mouse, and the serum calcium levels were measured.

[8] = system: MKP-1 (a MAPK-specific phosphatase); test: Western Blot of MKP-1 in SCC cells; format: cell-based; conditions: 10 nM 1,25D3; vs untreated cells
Method: (§1) SCC cells were treated in vitro with 10 nM 1,25D3, and untreated cells served as a control. The level of phosphorylated MAPK was assessed at 24 and 48 hours post treatment. Using Western Blot analysis, the amounts of MAPK, MEK (the kinase responsible for phosphorylating MAPK), MKP-1 (a MAPK-specific phosphatase), and growth factor receptors (EGF, PDGF, and IGF1 growth factor receptors) were assessed as well. Additionally, the activity level of MEK was assessed by quantitative in vitro kinase assays.

MEK [9] = test: Western Blot of MEK protein in SCC cells; format: cell-based; conditions: 10 nM 1,25D3; vs untreated cells
Method: as §1

MAPK = test: Western Blot of phosphorylated MAPK and MAPK in SCC cells; format: cell-based; conditions: 10 nM 1,25D3, vs untreated cells
Method: as §1

MEK [10] = test: quantitative in vitro kinase assay of MEK activity; format: cell-based; conditions: 10 nM 1,25D3; vs untreated cells
Method: as §1

[11] = system: EGF, PDGF, and IGF1 growth factor receptors; test: Western Blot of growth factor receptors in SCC cells; format: cell-based; conditions: 10 nM 1,25D3; vs untreated cells
Method: as §1

Which “mean AUC of carboplatin” value ([1]; carboplatin D1) does the source give for `N.N.O=C([O-])C1(C(=O)[O-])CCC1.[Pt+2]` [carboplatin] here?
Its value is 7800 ng·h/mL.

What about the “mean AUC of carboplatin” value ([1]; carboplatin D3) of the same molecule?
Its value is 6700 ng·h/mL.

What about the myleosuppression ([1]; carboplatin followed by adjunctive 1,25D3, each patient) of the same molecule?
The myleosuppression was “consistently less”.

What about the “AUC of carboplatin when pretreated with 1,25D3 vs carboplatin given first” value ([1]; each patient, first two cycles) of the same molecule?
Its value is “higher in each patient”.

With `C=C1/C(=C\C=C2/CCC[C@]3(C)C([C@H](C)CC#CC(C)(C)O)=CC[C@@H]23)C[C@@H](O)C[C@@H]1O` [Ro23-7553, 1,25-dihydroxy-16-ene-23-yne-cholecalciferol] as the molecule, how does the “enhancement of clonogenic cell kill” value (SCCVII/SF tumor [2]; Ro23-7553 0.5 mg/kg body weight/day i.p. 3 days, varying doses of cisplatin on day 3, vs cisplatin or Ro23-7553 alone) read?
The value was “significant enhancement of clonogenic cell kill”.

And the “enhancement of cisplatin-mediated tumor cell kill” value (SCCVII/SF tumor [2]; Ro23-7553 0.03125-0.5 mg/kg body weight/day 3 days, cisplatin 6 mg/kg on day 3, vs either alone, p<0.01 ANOVA)?
The value was “significantly enhancing cisplatin-mediated tumor cell kill even at the lowest doses tested”.

And the fractional tumor volume (SCCVII/SF tumor [3]; Ro23-7553 administered continuously, then cisplatin 6 mg/kg i.p., p<0.001 ANOVA)?
The fractional tumor volume was “significant decrease in fractional tumor volume”.

And the “Tumor Regrowth Delay” value (SCCVII/SF tumor [3])?
The value was 1.8 ± 0.8.

What about the anti-proliferative effects (SCCVII/SF cells [4]) of the same molecule?
Its anti-proliferative effects is “anti-proliferative effects are observed”.

What about the hypercalcemia ([5]; any of the Ro23-7553 doses (0.03125-0.5 mg/kg/day, 3 days) with cisplatin) of the same molecule?
The hypercalcemia was “No animals in either experimental approach became hypercalcemic”.

And the “enhancement of clonogenic cell kill” value (SCCVII/SF cells [6]; pretreatment with 2 nM and 4 nM Ro23-7553, then 0.2-0.8 μg/ml cisplatin, vs cisplatin alone or concurrent administration)?
The value was “significantly enhanced clonogenic cell kill”.

Which “dehydration, piloerection, and cachexia attributable to hypercalcemia” value ([7]; vs control animals (1,25D3 alone)) does the source give for `O=P(O)(O)C(O)(Cn1ccnc1)P(=O)(O)O` [zoledronate] here?
The value was “less dehydration, piloerection, and cachexia”.

What does the source list for `C=C1/C(=C\C=C2/CCC[C@]3(C)[C@@H]([C@H](C)CCCC(C)(C)O)CC[C@@H]23)C[C@@H](O)C[C@@H]1O` [1,25D3, 1,25-dihydroxycholecalciferol]?
amount of MKP-1 [8]: higher amounts of MKP-1; enhancement of clonogenic cell kill (SCCVII/SF tumor [2]; 1,25D3 0.2 μg/day i.p. 3 days, varying doses of paclitaxel on day 3, vs paclitaxel alone): significant enhancement of clonogenic cell kill; enhancement of clonogenic cell kill (SCCVII/SF tumor [2]; 1,25D3 0.5 mg/kg body weight/day i.p. 3 days, carboplatin 25-100 mg/kg on day 3, vs either alone): significant enhancement of clonogenic cell kill; enhancement of clonogenic cell kill (SCCVII/SF tumor [2]; 1,25D3 varying doses i.p. 3 days, carboplatin 50 mg/kg on day 3, vs carboplatin alone): significant enhancement of clonogenic cell even at the lowest doses of 1,25D3; serum calcium levels ([7]; 24 hours after last 1,25D3 treatment (0.25 μg once a day, three days)): 17.2 ± 1.1 mg/dL; serum calcium levels ([7]; 48 hours after last 1,25D3 treatment (0.25 μg once a day, three days)): 16.5 ± 1.1 mg/dL; amount of MEK protein (MEK [9]): slightly less MEK protein; fractional tumor volume (SCCVII/SF tumor [3]; 0.2 μg/mouse 1,25D3 continuously for two to eight days, then paclitaxel 40 mg/kg i.p.): significant decrease in fractional tumor volume; level of phosphorylated MAPK (MAPK; 24 and 48 hours): less phosphorylated MAPK; amount of MAPK protein (MAPK): not affected; MEK activity profile (MEK [10]): not significantly different; anti-proliferative effects (SCCVII/SF cells [4]): anti-proliferative effects are observed; amounts of EGF, PDGF, and IGF1 growth factor receptors [11]: significantly higher amounts; hypercalcemia ([5]; 1,25D3 0.2 μg/day 3 days with paclitaxel): No animals became hypercalcemic; hypercalcemia ([5]; any of the 1,25D3 doses tested, with carboplatin 50 mg/kg): No animals became hypercalcemic; enhancement of clonogenic cell kill over paclitaxel alone (SCCVII/SF cells [6]; concurrent administration of 1,25D3 and paclitaxel): did not result in an enhancement of clonogenic cell kill; enhancement of clonogenic cell kill (SCCVII/SF cells [6]; pretreatment with 2 nM 1,25D3 for 48 hours, then carboplatin, vs carboplatin alone or concurrent): significantly enhanced clonogenic cell kill; enhancement of clonogenic cell kill (SCCVII/SF cells [6]; pretreatment with 1,25D3, then paclitaxel): significantly enhanced clonogenic cell kill

With `N.N.[Cl][Pt][Cl]` [Cisplatin, cisplatin] as the molecule, how does the “Tumor Regrowth Delay” value (SCCVII/SF tumor [3]) read?
The value was 4.4 ± 0.3.

From patent publication US6559139B1, “Combination chemotherapy” (University of Pittsburgh of the Commonwealth System of …, priority 1997, dated 2003)
